From US10737995B2, “Nuclear receptor modulators and their use for the treatment and prevention of cancer” (The United States of America, as represented by the …, priority 2011, dated 2020)

Legend:
[1] = test system: PSA mRNA expression in 22Rv1 cells; test: PSA mRNA expression in 22Rv1 cells, real time RT-PCR; format: cell-based, human
Procedure: (§1) For PSA, TMPRSS2, and UBE2C mRNA determination, LNCaP cells or 22Rv1 cells, were cultured and treated with the corresponding compounds for 20 hours in the presence or absence of the synthetic androgen R1881. Total RNA was isolated from cultured cells using the RNeasy RNA Isolation Kit (Qiagen). The RNAs were reverse transcribed immediately after RNA extraction with the High Capacity cDNA Reverse Transcription Kit (Applied Biosystems), using random primers included in the kit, according to the manufacturer's instructions. The cDNA products were stored at −20° C. until the PCR analysis was performed. Real-time PCR primers were designed using Primer Express Applications (Applied Biosystems). The primer sequences for real-time PCR were as follows:
[…] It was known that the expression of PSA mRNA in LNCaP cells is driven by an AR mediated pathway. While PSA is androgen-dependent AR-target gene, UBE2C is androgen-independent AR-target gene. The PSA, TMPRSS2 and UBE2C mRNA levels were normalized by the rRNA level.

[2] = test system: genome-wide transcriptional response; test: Microarray analysis of genome-wide transcriptional response; format: cell-based, human
Procedure: This example illustrates that Compound 86 has an impact on AR-driven gene expression (PSA) and androgen-independent AR-driven gene expression (e.g., UBE2C). A microarray analysis was performed on the genome-wide transcriptional response to Compound 86 compared with the antiandrogens bicalutamide and MDV3100, and solvent DMSO. Each compound was tested at two concentrations: 1 and 5 μM. The data were subjected to bioinformatics analysis using the Partek Genomics Software. […] FIG. 19B depicts a different view in 3-dimensional space again reinforcing the differences between Compound 86 versus DMSO, bicalutamide and MDV3100. This visual assessment is consistent with the data showing that Compound 86 and not DMSO, bicalutamide, or MDV3100, can inhibit the androgen-independent, androgen receptor-dependent transcriptional program of castrate-resistant prostate cancer.

[3] = test system: TMPRSS2 mRNA expression in LNCaP cells; test: TMPRSS2 mRNA expression in LNCaP cells, real time RT-PCR; format: cell-based, human; conditions: for block of R1881-induced TMPRSS2 mRNA induction: in the presence of R1881, dose-dependent manner (FIG. 6); for inhibition of TMPRSS2 mRNA: LNCaP cells (FIG. 12)
Procedure: (§2) LNCaP cells were incubated for 3 days in phenol red-free RPMI 1640 supplemented with 10% charcoal-stripped FBS and 1% antimycotic-antibiotic solution, and then cells were treated for 20 hours. The concentration of R1881 was 0.5 nM, and that of the corresponding compounds was 10, 5 or 1 μM, respectively. Compound 49 inhibited PSA mRNA expression 80% in the presence of R1881 at 5 μM. This activity was similar to bicalutamide.
as §1
(§3) The mRNA level and total protein in cells were measured after treatment with either control, bicalutamide (0.08 μM to 1.25 μM), or MDV3100 (an antiandrogen) and either about 2.5 μM or about 1.0 μM of Compounds 1-117 respectively. It was known that the expression of PSA mRNA in LNCaP cells is driven by an AR mediated pathway. While PSA is androgen-dependent AR-target gene, UBE2C is androgen-independent AR-target gene. The PSA, TMPRSS2 and UBE2C mRNA levels were normalized by the rRNA level.

[4] = test system: R1881-induced AR translocation to the nucleus; test: AR translocation, immunocytochemistry in LNCaP cells; format: cell-based, human; conditions: 10 μM for three hours, then 1 nM R1881 for three hours (FIG. 7)
Procedure: FIG. 7 is a graph showing the results of an AR translocation experiment. LNCaP cells were incubated on cover slips in phenol red free RPMI 1640 with 10% charcoal stripped FBS and 1% antimycotic-antibiotic solution for three days. Cells were treated with DMSO, bicalutamide (10 μM) or Compound 11 for three hours, followed by treatment with 1 nM R1881 for three hours. Cells were washed with PBS, fixed with 0.4% paraformaldehyde for 30 min at 37° C., washed with PBS, permeabilized with 0.4% Triton X-100 for 10 min, and then stained with anti-AR antibody (1:100 dilution, Santa Cruz Biotechnology, Santa Cruz, Calif.) for 1 hour at room temperature. After washing with PBS, cells were stained with FITC-labeled goat anti-rabbit IgG (1:200 dilution, BD Biosciences, San Jose, Calif.) for 1 hour at room temperature. After washing with PBS, cells were incubated for 10 min with Hoechst 33342 for nuclear staining, washed, and the dried cover slips were mounted on glass slides with SlowFade Gold anti-fade reagent (Invitrogen). Fluorescence images were obtained using a Leica® DM IRB fluorescence microscope, and nuclear-to-cytoplasmic AR ratios were measured using OpenLab® (Perkin Elmer, Waltham, Mass.) software. […]

[5] = test system: PSA mRNA expression in LNCaP cells; test: PSA mRNA expression in LNCaP cells, real time RT-PCR; format: cell-based, human; conditions: for block of R1881-induced PSA mRNA induction: in the presence of R1881, dose-dependent manner (FIG. 6); for inhibition of PSA mRNA: LNCaP cells (FIG. 12); for inhibition of PSA mRNA expression: 500 nM (FIG. 9); for agonistic effects on PSA and TMPRSS2 mRNA levels: dose dependent study (FIG. 9)
Procedure: FIG. 3 is a graph showing the inhibition of PSA mRNA expression. […] As shown in the graph, a hit was identified that inhibited over 90% PSA mRNA expression in LNCaP cells at 10 μM after 20 hours of treatment.
as §2, §1, §3

[6] = test system: TMPRSS2 mRNA expression in 22Rv1 cells; test: TMPRSS2 mRNA expression in 22Rv1 cells, real time RT-PCR; format: cell-based, human; conditions: 22Rv1 cells (FIG. 13)
Procedure: as §1, §3

[7] = test system: UBE2C mRNA expression in 22Rv1 cells; test: UBE2C mRNA expression in 22Rv1 cells, real time RT-PCR; format: cell-based, human; conditions: 22Rv1 cells (FIG. 13)
Procedure: as §1, §3

AR in LNCaP cells = test: AR Western blot, LNCaP cells treated 6 hours; format: cell-based, human; conditions: 10 μM (data not shown)
Procedure: LNCaP cells were maintained as above. At 50% confluence, cells were washed several times in serum-free RPMI-1640 medium, and re-cultured for 72 hours in RPMI-1640 medium containing 10% charcoal-stripped fetal bovine serum. Cells were treated with R1881 (0.5 nM), with, or without 10 μM, 5 μM or 1 μM of Compounds 1-117, and then cells were cultured for 20 hours. Nuclear and cytoplasmic protein fractionation was performed using NE-PER Nuclear and Cytoplasmic Extraction Reagents Kit (Thermo Scientific Pierce Protein Research Products) according to the manufacturer's instructions. Quantification of AR in nucleus and cytosol was performed by Western blotting with an AR-specific antibody following polyacrylamide gel electrophoresis.
LNCaP cells were also tested after treatment for only 6 hours. Compounds 49, 80 and 86, as well as KU135 (a C-terminal Hsp90 inhibitor) and 17-AAG (a known AR degradation inducer), were tested at 2.5, 5, and 10 μM as well as control (DMSO vehicle). […] LAPC-4 cells (a human prostate cancer cell line with wt AR) were tested against Compounds 80, 86, KU-32 (another C-terminal Hsp90 inhibitor) and 17-AAG.

[8] = test system: UBE2C mRNA expression in LNCaP cells; test: UBE2C mRNA expression in LNCaP cells, real time RT-PCR; format: cell-based, human; conditions: LNCaP cells (FIG. 12)
Procedure: as §1, §3

LNCaP cells = test: LNCaP cell growth, Trypan blue viable cell count; format: cell-based; conditions: Homo sapiens, 72 h, 3 days incubation, Trypan blue viable cell number, read-out: IC50 of LNCaP cell growth inhibition
Procedure: LNCaP cells were incubated with Compound 49 for 3 days. Viable cell number was determined by Trypan blue staining and counting in a hemocytometer. The IC50 value of Compound 49 was 3 μM.

[9] = LNCaP cells, synthetic androgen R1881 (FIG. 6)

CNC(=O)c1ccc(N2C(=S)N(c3ccc(C#N)c(C(F)(F)F)c3)C(=O)C2(C)C)cc1F [MDV3100, 4-(3-(4-cyano-3-(trifluoromethyl)phenyl)-5,5-dimethyl-4-oxo-2-thioxoimidazolidin-1-yl)-2-fluoro-N-methylbenzamide] was tested, and the “sensitivity of PSA mRNA expression” value ([1]; 22Rv1 cells, 20 hours of exposure, 10 μM (FIG. 14)) was “insensitive” and the “inhibition of the androgen-independent, androgen receptor-dependent transcriptional program of castrate-resistant prostate cancer” value [2] was “not”.
With COc1ccc(C(=O)/C=C/c2ccc([N+](=O)[O-])cc2)c(OC)c1OC [Compound 11] the “block of R1881-induced TMPRSS2 mRNA induction” value [3] was “blocked”, the “inhibition of R1881-induced AR translocation to the nucleus (nuclear-to-cytoplasmic AR ratio)” value [4] was “markedly more active than bicalutamide” and the “block of R1881-induced PSA mRNA induction” value [5] was “blocked”.
For CC(O)(CS(=O)(=O)c1ccc(F)cc1)C(=O)Nc1ccc(C#N)c(C(F)(F)F)c1 (stereo not drawn) [bicalutamide, reference compound], the “inhibition of PSA mRNA expression” value ([1]; 22Rv1 cells (FIG. 13)) was “No inhibition”, the IC50 ([5]; Homo sapiens, LNCaP cells, dose-dependent study (FIG. 4), read-out: IC50 of PSA mRNA inhibition) was 300 nM and the “inhibition of TMPRSS2 mRNA expression” value [6] was “No inhibition”. The “inhibition of UBE2C mRNA expression” value [7] was “No inhibition”.
With COc1ccc(C(=O)/C=C/c2cccc([N+](=O)[O-])c2)c(OC)c1OC [Compound 12] the “block of R1881-induced TMPRSS2 mRNA induction” value [3] was “blocked”, the “agonistic effect on AR target gene expression” value ([5]; 1 μM, PSA and TMPRSS2, in the presence of R1881 (FIG. 6)) was “weak agonistic effect” and the “activity in blocking R1881-induced AR target gene expression relative to Compound 11” value ([5]; high concentrations, PSA and TMPRSS2, in the presence of R1881) was “more active”. The “block of R1881-induced PSA mRNA induction” value [5] was “blocked”.
For COc1cc(C(=O)/C=C/c2cccc([N+](=O)[O-])c2)cc(OC)c1OC [Compound 80], the “inhibition in AR Western blot” value (AR in LNCaP cells) was “showed inhibition”.
In the case of COc1ccc(C(=O)/C=C/c2ccc(C#N)cc2)cc1OC [Compound 103], the “inhibition of TMPRSS2 mRNA” value [3] is reported as “inhibited”, the “inhibition of UBE2C mRNA” value [8] is reported as “not effective” and the “inhibition of PSA mRNA” value [5] is reported as “inhibited”. For the same compound, the “inhibition of PSA mRNA expression” value ([5]; LNCaP cells) was 50% and the “agonistic effects on PSA and TMPRSS2 mRNA levels” value ([5]; LNCaP cells) was “No agonistic effects”.
For COc1ccccc1C(=O)/C=C/c1ccccc1[N+](=O)[O-] [Compound 49], the “inhibition of PSA mRNA expression compared to control” value ([1]; 22Rv1 cells (FIG. 13)) was 80%, the “inhibition of TMPRSS2 mRNA” value [3] was “inhibited” and the “inhibition of UBE2C mRNA” value [8] was “not effective”. The IC50 (LNCaP cells) was 3000 nM, the “inhibition of PSA mRNA” value [5] was “inhibited” and the “inhibition of PSA mRNA expression in the presence of R1881” value ([5]; LNCaP cells, 0.5 nM R1881, 5 μM, 20 hours (FIG. 10)) was 80%. For the same compound, the “inhibition of PSA mRNA expression” value ([5]; LNCaP cells) was 50%, the “agonistic effects on PSA and TMPRSS2 mRNA levels” value ([5]; LNCaP cells) was “No agonistic effects” and the “inhibition of UBE2C mRNA expression” value [7] was “completely failed to inhibit”.
C[C@]1(O)CC[C@H]2[C@@H]3CCC4=CC(=O)CCC4=C3C=C[C@@]21C [Compound R1881, methyltrienolone, reference compound] was tested, and the “TMPRSS2 mRNA induction compared with the DMSO control” value [3, 9] was ~30 fold and the “PSA mRNA induction compared with the DMSO control” value [5, 9] was “about 500 fold”.
